Key:
[1] = biological target: Delta-type opioid receptor (Homo sapiens, UniProt P41143); test: GPCRScan assay: inhibition of DOR; design: radioligand conc. used [nm] 1.0 – 2.0, parental cells stable HEK
[2] = biological target: Kappa-type opioid receptor (Homo sapiens) (UniProt P41145); conditions: Compound concentration 10.0 uM
[3] = biological target: T1, 5-hydroxytryptamine receptor 1A (Homo sapiens) (UniProt P08908); conditions: Compound concentration 10.0 uM
T1 sequence (whole entry): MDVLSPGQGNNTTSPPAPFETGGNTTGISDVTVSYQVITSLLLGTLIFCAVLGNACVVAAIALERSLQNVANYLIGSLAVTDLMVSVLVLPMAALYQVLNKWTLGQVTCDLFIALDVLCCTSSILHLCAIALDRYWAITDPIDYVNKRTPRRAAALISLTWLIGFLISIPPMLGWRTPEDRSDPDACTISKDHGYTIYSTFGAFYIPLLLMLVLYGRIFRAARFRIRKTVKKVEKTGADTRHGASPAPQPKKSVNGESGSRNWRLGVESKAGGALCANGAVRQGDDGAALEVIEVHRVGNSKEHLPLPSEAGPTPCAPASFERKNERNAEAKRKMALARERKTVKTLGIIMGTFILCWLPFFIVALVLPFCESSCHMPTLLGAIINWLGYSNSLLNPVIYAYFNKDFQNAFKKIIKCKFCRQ

[4] = biological target: T2, 5-hydroxytryptamine receptor 3A (Homo sapiens) (UniProt P46098); conditions: Compound concentration 10.0 uM
T2 sequence (whole entry): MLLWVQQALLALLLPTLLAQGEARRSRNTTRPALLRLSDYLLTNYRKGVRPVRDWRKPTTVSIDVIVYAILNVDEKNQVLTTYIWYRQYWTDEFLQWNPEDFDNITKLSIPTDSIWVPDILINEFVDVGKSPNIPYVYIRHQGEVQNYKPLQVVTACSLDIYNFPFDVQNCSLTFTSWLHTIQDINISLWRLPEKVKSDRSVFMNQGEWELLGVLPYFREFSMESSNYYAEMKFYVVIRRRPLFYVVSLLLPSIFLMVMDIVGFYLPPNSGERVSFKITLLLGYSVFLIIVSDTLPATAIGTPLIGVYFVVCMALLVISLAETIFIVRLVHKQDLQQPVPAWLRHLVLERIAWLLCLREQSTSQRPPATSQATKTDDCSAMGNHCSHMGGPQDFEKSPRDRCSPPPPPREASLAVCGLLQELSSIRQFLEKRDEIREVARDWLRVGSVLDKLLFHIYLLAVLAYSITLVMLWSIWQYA

[5] = biological target: T3, Muscarinic acetylcholine receptor M2 (Homo sapiens) (UniProt P08172); conditions: Compound concentration 10.0 uM
T3 sequence (whole entry): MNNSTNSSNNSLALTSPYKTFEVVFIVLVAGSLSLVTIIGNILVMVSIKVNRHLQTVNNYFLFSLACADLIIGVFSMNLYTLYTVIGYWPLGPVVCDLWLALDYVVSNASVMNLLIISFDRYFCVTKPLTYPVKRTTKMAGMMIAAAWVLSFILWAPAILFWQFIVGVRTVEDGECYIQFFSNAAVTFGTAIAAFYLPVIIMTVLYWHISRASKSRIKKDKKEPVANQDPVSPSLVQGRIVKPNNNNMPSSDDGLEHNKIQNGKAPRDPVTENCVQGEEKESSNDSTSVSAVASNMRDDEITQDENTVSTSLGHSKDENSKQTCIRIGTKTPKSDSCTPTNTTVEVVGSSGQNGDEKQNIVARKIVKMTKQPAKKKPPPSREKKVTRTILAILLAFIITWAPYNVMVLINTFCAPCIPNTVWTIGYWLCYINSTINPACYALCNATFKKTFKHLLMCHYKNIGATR

[6] = biological target: Sodium-dependent noradrenaline transporter (Homo sapiens) (UniProt P23975); conditions: Compound concentration 10.0 uM
[7] = biological target: C-C chemokine receptor type 1 (Homo sapiens) (UniProt P32246); test: CCR1 (h) Eurofins-Cerep binding assay; design: ligand concentration 0.01 nM; conditions: filed as agonist, Compound concentration 10.0 uM
[8] = biological target: 5-hydroxytryptamine receptor 2A (Homo sapiens) (UniProt P28223); test: 5-HT2A (h) Eurofins-Cerep binding assay; design: ligand concentration 0.5 nM; conditions: filed as antagonist, Compound concentration 10.0 uM
[9] = biological target: Sodium-dependent dopamine transporter (Homo sapiens, UniProt Q01959); test: dopamine transporter (h) Eurofins-Cerep binding assay; design: ligand concentration 4 nM; conditions: filed as antagonist, Compound concentration 10.0 uM
[10] = biological target: 5-hydroxytryptamine receptor 6 (Homo sapiens, UniProt P50406); test: 5-HT6 (h) Eurofins-Cerep binding assay; design: ligand concentration 2 nM; conditions: filed as agonist, Compound concentration 10.0 uM
[11] = biological target: GABA-A receptor; anion channel (Rattus norvegicus) (UniProt O09028+P15431+P18506+P18508+P19969+P20236+P23574+P23576+P28471+P28473+P30191+P62813+P63079+P63138+Q91ZM7+Q9ES14); test: Cl- channel (GABA-gated) Eurofins-Cerep binding assay; assay type: protein-complex assay; design: ligand concentration 3 nM; conditions: filed as antagonist, Compound concentration 10.0 uM
[12] = biological target: Vasopressin V1a receptor (Homo sapiens) (UniProt P37288); test: V1 a (h) Eurofins-Cerep binding assay; design: ligand concentration 0.3 nM; conditions: filed as agonist, Compound concentration 10.0 uM
[13] = biological target: Mu-type opioid receptor (Homo sapiens) (UniProt P35372); test: mu (MOP) (h) Eurofins-Cerep binding assay; design: ligand concentration 0.5 nM; conditions: filed as agonist, Compound concentration 10.0 uM
[14] = biological target: Adrenergic receptor alpha-1 (Rattus norvegicus) (UniProt P15823+P23944+P43140); test: Alpha1 (non-selective) Eurofins-Cerep binding assay; assay type: protein assay; design: ligand concentration 0.25 nM; conditions: filed as antagonist, Compound concentration 10.0 uM
Na+ channel (site 2) = Na+ channel (site 2) (Rattus norvegicus, UniProt F1LQQ7+O08562+O88420+O88457+P04774+P04775+P08104+P15389+P15390+Q62968); test: Na+ channel (site 2) Eurofins-Cerep binding assay; assay type: protein assay; design: incubation time 60 min, incubation temperature 37°C, ligand concentration 10 nM; conditions: rat cerebral cortex, probe [3H]batrachotoxin, compound concentration 10 uM, read-out: % Inhibition of Control Specific Binding (Mean n=2)
[15] = biological target: Galanin receptor type 2 (Homo sapiens) (UniProt O43603); test: GAL2 (h) Eurofins-Cerep binding assay; design: ligand concentration 0.05 nM; conditions: filed as agonist, Compound concentration 10.0 uM
[16] = biological target: T4, Muscarinic acetylcholine receptor M5 (Homo sapiens) (UniProt P08912); test: M5 (h) Eurofins-Cerep binding assay; design: ligand concentration 0.3 nM; conditions: filed as antagonist, Compound concentration 10.0 uM
T4 sequence (whole entry): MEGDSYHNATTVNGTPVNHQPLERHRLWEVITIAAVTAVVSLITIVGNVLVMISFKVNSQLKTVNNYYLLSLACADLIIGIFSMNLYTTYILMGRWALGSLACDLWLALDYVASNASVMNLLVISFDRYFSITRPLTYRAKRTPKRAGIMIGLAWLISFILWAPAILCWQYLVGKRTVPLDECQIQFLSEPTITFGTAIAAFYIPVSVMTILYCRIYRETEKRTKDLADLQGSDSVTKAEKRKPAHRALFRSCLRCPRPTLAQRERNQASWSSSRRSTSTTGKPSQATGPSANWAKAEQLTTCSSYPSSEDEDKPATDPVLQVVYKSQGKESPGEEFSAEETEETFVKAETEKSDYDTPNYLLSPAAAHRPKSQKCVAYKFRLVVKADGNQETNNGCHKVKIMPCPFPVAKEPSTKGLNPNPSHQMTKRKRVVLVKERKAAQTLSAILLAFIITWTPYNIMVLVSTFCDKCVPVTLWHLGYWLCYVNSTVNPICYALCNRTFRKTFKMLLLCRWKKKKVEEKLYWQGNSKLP

Delta-type opioid receptor, sequence (P41143 whole entry): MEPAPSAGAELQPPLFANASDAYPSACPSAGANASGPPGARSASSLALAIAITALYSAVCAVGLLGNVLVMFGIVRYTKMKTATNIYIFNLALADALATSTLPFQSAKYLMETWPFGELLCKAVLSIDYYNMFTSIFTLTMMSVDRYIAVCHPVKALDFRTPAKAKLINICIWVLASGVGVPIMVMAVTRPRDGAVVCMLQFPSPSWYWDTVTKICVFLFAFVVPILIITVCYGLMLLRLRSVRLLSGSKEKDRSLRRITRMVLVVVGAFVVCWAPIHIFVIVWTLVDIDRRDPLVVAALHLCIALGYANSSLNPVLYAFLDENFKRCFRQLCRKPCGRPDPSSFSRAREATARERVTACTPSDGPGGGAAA
Sodium-dependent noradrenaline transporter (Homo sapiens), sequence (P23975 whole entry): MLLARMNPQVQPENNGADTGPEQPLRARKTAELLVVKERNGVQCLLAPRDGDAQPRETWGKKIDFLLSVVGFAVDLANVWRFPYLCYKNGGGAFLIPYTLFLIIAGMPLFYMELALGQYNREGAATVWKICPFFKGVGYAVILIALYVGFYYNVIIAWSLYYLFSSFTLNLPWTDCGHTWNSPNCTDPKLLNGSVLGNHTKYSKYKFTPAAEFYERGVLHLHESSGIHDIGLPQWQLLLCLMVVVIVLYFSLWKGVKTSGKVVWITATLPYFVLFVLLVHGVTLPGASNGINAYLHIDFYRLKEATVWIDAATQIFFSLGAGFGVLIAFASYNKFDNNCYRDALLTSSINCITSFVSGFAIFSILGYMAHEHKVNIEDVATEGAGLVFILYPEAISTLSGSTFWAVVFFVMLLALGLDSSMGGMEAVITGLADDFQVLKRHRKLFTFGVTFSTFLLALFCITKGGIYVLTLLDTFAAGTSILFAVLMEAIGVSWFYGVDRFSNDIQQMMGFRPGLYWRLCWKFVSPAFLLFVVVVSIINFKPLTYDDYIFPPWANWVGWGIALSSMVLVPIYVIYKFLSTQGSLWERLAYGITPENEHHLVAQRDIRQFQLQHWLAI
Vasopressin V1a receptor (Homo sapiens), sequence (P37288 whole entry, looked up): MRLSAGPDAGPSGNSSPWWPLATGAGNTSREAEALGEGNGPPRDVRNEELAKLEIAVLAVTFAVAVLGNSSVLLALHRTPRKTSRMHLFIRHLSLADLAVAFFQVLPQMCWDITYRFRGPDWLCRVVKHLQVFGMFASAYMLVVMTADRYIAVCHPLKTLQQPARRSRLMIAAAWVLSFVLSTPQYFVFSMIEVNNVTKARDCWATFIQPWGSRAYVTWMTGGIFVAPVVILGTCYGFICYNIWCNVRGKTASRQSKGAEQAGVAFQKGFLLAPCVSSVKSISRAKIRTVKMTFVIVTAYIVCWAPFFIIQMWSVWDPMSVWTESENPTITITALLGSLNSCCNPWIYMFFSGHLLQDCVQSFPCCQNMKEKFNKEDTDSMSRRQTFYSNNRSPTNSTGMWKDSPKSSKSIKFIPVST
Mu-type opioid receptor (Homo sapiens), sequence (P35372 whole entry): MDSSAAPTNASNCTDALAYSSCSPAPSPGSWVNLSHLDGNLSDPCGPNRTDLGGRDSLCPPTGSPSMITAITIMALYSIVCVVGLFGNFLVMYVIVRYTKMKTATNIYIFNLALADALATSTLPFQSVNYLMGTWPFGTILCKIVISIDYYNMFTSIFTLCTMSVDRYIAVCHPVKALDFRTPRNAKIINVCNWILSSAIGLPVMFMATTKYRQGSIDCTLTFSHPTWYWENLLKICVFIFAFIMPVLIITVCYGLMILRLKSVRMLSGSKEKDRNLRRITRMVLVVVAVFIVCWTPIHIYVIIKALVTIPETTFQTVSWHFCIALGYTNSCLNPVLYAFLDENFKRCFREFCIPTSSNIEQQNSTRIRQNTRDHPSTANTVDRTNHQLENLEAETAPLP
Sodium-dependent dopamine transporter, sequence (Q01959 whole entry): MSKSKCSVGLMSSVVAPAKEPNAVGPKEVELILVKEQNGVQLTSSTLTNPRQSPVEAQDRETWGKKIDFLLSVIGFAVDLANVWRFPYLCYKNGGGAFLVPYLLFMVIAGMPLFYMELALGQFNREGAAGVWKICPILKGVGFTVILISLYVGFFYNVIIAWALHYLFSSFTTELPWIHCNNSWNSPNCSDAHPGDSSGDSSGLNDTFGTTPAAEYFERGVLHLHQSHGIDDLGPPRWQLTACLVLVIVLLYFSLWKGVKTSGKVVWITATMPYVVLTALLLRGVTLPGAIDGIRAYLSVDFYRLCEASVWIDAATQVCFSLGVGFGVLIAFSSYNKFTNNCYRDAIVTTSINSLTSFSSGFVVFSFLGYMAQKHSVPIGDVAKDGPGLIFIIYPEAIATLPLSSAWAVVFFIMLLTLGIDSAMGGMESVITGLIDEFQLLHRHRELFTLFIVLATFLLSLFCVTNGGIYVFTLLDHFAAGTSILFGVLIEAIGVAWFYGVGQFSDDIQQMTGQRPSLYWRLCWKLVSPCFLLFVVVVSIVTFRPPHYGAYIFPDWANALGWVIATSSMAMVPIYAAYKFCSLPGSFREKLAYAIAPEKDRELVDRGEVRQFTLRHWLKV
5-hydroxytryptamine receptor 2A (Homo sapiens), sequence (P28223 whole entry): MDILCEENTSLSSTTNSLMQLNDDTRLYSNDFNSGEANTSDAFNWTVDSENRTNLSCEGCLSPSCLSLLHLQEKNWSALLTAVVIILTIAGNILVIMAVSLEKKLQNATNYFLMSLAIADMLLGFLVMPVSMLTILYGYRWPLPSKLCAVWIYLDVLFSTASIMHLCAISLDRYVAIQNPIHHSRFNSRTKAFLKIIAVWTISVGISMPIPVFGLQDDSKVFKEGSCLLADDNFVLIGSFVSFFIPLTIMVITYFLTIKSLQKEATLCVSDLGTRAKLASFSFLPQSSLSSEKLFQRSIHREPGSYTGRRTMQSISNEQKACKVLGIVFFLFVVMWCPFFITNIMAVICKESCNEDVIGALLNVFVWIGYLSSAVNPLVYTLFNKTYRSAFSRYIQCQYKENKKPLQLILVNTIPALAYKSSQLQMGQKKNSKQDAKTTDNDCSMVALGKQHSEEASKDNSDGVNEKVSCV
5-hydroxytryptamine receptor 6, sequence (P50406 whole entry): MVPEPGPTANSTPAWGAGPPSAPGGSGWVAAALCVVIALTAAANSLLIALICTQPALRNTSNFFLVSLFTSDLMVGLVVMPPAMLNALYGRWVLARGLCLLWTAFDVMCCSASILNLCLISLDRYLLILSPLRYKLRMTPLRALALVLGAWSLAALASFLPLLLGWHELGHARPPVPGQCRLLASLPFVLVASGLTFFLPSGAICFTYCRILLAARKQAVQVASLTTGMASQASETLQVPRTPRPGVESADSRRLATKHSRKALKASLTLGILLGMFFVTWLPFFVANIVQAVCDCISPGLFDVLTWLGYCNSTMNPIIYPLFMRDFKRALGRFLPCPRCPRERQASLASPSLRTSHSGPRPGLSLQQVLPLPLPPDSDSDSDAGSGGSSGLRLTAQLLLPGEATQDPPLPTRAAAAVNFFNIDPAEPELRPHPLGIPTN
C-C chemokine receptor type 1 (Homo sapiens), sequence (P32246 whole entry): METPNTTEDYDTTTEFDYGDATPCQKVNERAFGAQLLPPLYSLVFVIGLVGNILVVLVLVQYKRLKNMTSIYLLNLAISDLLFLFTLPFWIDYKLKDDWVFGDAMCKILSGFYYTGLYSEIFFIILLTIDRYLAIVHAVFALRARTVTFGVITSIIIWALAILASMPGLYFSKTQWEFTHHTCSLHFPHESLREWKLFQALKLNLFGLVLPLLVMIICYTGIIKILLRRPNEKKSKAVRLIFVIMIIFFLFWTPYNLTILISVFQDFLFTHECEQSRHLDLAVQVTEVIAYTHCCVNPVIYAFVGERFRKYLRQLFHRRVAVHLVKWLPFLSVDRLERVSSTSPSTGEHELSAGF
Galanin receptor type 2 (Homo sapiens), sequence (O43603 whole entry): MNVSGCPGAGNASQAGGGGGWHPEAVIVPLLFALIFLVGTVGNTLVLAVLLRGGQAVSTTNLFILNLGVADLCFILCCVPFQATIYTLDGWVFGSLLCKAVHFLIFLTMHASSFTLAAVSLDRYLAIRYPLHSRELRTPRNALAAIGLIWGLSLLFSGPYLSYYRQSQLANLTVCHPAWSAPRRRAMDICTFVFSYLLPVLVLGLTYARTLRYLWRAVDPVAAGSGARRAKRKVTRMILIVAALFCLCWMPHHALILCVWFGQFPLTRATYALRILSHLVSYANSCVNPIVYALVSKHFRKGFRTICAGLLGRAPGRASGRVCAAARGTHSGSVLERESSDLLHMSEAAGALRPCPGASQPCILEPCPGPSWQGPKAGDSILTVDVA
Kappa-type opioid receptor (Homo sapiens), sequence (P41145 whole entry): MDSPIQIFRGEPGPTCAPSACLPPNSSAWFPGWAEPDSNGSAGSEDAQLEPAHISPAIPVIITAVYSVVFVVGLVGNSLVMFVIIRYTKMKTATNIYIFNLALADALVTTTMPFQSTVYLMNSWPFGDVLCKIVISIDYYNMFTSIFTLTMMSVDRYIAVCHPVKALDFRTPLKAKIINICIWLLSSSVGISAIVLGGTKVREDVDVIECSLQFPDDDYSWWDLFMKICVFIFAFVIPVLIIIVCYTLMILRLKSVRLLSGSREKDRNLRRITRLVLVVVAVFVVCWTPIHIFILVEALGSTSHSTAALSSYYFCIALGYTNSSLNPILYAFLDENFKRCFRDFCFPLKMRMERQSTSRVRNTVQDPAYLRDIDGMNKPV

SMILES | Ki ([1]; read-out: Ki) [nM] | Ki ([1]; read-out: pKi (converted)) [nM] | inhibition [2] [%] | inhibition [3] [%] | inhibition [4] [%] | inhibition [5] [%] | inhibition [6] [%] | % Inhibition of Control Specific Binding (Mean n=2) [7] [%] | % Inhibition of Control Specific Binding (Mean n=2) [8] [%] | % Inhibition of Control Specific Binding (Mean n=2) [9] [%] | % Inhibition of Control Specific Binding (Mean n=2) [10] [%] | % Inhibition of Control Specific Binding (Mean n=2) [11] [%] | % Inhibition of Control Specific Binding (Mean n=2) [12] [%] | % Inhibition of Control Specific Binding (Mean n=2) [13] [%] | % Inhibition of Control Specific Binding (Mean n=2) [14] [%] | inhibition at 60 min, 10 µM (Na+ channel (site 2)) [%] | % Inhibition of Control Specific Binding (Mean n=2) [15] [%] | % Inhibition of Control Specific Binding (Mean n=2) [16] [%]
COc1cc(C(=O)O)ncc1C#Cc1ccccc1NS(=O)(=O)c1cccc2c(N(C)C)ccnc12 [MSC-0516] | 598 | 589 | 11 | 40.2 | 1.13 | 2.62 | -7.14 |  |  |  |  |  |  |  |  |  |  | 
CCOc1ccc(S(=O)(=O)Nc2ccc(Cl)cc2C#Cc2cnc(C(=O)O)cc2OC)c2ncccc12 [MSC-4381] |  |  |  | 18.6 | 9.43 | -0.58 | 34.4 | -4.3 | -4.1 | 7.8 | 32 | 59.9 | 92.3 | -8.9 | 6.6 | -4.9 | 11.1 | -3.3

— ChEMBL document CHEMBL4800726, “Data for DCP probe MSC-4381” (2021)
